Test results as given in ChEMBL document CHEMBL4152219, “Discovery of 1,8-acridinedione derivatives as novel GCN5 inhibitors via high throughput screening” (Eur J Med Chem, 2018).
Activity calls are given as the source filed them. The calls are words filed in the database; no cut-off is given here.

Key:
[1] = target: Histone acetyltransferase GCN5 (Saccharomyces cerevisiae S288c) (UniProt Q03330); test: Inhibition of yeast GCN5 (99 to 262 residues) expressed in Escherichia coli BL21 (DE3) at 33 uM preincubated for 15 mins followed by biotin tagged H3 peptide ( 1 to 23 residues) and [3H]-Ac-CoA addition and measured after 60 mins by radioactive acetylation assay
Histone acetyltransferase GCN5 (Saccharomyces cerevisiae S288c), sequence (Q03330 whole entry, the tested form may be a part): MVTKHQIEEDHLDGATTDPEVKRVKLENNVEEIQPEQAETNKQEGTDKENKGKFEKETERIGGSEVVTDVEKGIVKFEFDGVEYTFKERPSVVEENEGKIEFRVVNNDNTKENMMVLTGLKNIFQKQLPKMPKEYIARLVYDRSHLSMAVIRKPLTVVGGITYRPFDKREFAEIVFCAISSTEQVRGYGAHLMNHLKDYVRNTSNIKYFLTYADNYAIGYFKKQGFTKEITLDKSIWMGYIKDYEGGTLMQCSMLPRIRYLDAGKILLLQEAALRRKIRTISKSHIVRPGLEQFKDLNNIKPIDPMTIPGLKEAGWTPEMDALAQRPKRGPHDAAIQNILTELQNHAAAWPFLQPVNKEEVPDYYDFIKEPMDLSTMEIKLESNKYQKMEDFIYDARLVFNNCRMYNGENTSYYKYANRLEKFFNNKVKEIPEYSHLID

[2] = target: T1, Histone acetyltransferase GCN5 (Saccharomyces cerevisiae S288c, UniProt Q03330); test: Inhibition of yeast GCN5 (99 to 262 residues) expressed in Escherichia coli BL21 (DE3) preincubated for 15 mins followed by biotin tagged H3 peptide ( 1 to 23 residues) and [3H]-Ac-CoA addition and measured after 60 mins by radioactive acetylation assay
T1 sequence (Q03330 whole entry, the tested form may be a part): as above

[3] = target: Histone acetyltransferase GCN5 (Saccharomyces cerevisiae S288c) (UniProt Q03330); test: Inhibition of yeast GCN5 (99 to 262 residues) expressed in Escherichia coli BL21 (DE3) at 100 uM using biotin tagged H3 peptide ( 1 to 23 residues) as substrate preincubated for 30 mins followed by AC-CoA and substrate addition and measured after 30 mins by AlphaScreen assay
[4] = system: MV4-11; test: Antiproliferative activity against human MV4-11 cells after 3 days by celltiter-glo luminescent assay; assay type: functional, cell-based; details: for IC50: MV4-11, 72 h
[5] = target: Histone acetyltransferase KAT2A (Homo sapiens) (UniProt Q92830); test: Inhibition of GCN5 in human MV4-11 cells assessed as reduction of acetylated H3K14 level up to 100 uM after 24 hrs by Western blot analysis; assay type: cell-based
Histone acetyltransferase KAT2A (Homo sapiens), sequence (Q92830 2-837 limits assumed): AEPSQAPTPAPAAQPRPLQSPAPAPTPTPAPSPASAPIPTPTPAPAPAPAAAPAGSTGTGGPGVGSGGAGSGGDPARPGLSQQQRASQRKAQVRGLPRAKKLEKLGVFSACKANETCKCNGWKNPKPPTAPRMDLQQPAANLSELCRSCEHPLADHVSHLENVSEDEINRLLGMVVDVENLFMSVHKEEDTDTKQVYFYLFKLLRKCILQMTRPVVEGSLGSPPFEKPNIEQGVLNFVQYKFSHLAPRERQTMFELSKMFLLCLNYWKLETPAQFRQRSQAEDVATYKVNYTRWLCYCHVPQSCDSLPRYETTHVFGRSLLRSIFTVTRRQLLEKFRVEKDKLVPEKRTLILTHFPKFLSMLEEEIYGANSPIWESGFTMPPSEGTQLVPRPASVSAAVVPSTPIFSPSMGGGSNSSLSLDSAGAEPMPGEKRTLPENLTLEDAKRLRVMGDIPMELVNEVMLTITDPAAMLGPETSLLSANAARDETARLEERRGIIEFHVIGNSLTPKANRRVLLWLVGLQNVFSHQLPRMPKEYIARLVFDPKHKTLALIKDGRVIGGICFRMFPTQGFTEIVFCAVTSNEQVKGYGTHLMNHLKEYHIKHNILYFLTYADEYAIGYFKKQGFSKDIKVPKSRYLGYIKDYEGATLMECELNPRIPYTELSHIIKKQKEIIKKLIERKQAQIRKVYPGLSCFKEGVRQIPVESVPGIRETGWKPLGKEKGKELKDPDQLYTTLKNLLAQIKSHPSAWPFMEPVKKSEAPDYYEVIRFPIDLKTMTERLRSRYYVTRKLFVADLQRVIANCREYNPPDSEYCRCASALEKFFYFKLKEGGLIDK

[6] = target: Histone acetyltransferase GCN5 (Saccharomyces cerevisiae S288c) (UniProt Q03330); test: Binding affinity to yeast GCN5 (99 to 262 residues) expressed in Escherichia coli BL21 (DE3) at 200 uM by CPMG NMR spectroscopy
[7] = target: T1, Histone acetyltransferase GCN5; test: Binding affinity to yeast GCN5 (99 to 262 residues) expressed in Escherichia coli BL21 (DE3) by SPR analysis
[8] = target: Histone acetyltransferase GCN5 (Saccharomyces cerevisiae S288c) (UniProt Q03330); test: Binding affinity to yeast GCN5 (99 to 262 residues) expressed in Escherichia coli BL21 (DE3) at 200 uM by STD NMR spectroscopy
[9] = target: T2, Histone-lysine N-methyltransferase EHMT2 (Homo sapiens) (UniProt Q96KQ7); test: Inhibition of G9a (unknown origin) at 33 uM relative to control
T2 sequence (whole entry): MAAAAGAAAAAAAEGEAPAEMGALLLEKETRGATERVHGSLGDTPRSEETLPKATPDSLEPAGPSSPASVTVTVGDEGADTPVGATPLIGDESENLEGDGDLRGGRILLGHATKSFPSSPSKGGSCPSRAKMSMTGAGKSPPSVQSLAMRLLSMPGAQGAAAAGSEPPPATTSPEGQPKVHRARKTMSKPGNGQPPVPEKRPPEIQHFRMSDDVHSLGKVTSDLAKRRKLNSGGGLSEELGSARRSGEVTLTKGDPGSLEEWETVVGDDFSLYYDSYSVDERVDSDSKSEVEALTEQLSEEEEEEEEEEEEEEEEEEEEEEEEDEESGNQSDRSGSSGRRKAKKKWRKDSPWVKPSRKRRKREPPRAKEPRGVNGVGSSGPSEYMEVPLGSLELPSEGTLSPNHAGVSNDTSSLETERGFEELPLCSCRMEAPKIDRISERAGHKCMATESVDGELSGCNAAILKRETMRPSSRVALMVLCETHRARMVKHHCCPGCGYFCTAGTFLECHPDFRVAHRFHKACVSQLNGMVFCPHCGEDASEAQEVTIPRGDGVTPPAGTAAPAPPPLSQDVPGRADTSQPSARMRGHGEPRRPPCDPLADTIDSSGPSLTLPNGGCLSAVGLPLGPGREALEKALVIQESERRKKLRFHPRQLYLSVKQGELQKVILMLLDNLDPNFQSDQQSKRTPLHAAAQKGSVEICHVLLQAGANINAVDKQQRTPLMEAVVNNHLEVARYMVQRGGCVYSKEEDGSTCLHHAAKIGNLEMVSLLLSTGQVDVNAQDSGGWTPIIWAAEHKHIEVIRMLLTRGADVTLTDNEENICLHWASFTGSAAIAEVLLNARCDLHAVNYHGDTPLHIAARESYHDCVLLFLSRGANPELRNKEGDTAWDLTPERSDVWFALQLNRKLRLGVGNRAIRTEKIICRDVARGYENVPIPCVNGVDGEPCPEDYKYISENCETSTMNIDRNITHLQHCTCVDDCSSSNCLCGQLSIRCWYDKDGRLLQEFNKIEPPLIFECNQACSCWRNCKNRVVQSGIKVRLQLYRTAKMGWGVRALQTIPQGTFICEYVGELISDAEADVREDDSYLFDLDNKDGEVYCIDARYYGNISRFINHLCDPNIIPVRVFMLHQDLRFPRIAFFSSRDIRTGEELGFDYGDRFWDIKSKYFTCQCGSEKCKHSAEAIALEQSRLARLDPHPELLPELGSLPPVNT

[10] = target: Histone-lysine N-methyltransferase EZH2 (Homo sapiens) (UniProt Q15910); test: Inhibition of EZH2 (unknown origin) at 33 uM relative to control
Histone-lysine N-methyltransferase EZH2 (Homo sapiens), sequence (Q15910 whole entry, looked up): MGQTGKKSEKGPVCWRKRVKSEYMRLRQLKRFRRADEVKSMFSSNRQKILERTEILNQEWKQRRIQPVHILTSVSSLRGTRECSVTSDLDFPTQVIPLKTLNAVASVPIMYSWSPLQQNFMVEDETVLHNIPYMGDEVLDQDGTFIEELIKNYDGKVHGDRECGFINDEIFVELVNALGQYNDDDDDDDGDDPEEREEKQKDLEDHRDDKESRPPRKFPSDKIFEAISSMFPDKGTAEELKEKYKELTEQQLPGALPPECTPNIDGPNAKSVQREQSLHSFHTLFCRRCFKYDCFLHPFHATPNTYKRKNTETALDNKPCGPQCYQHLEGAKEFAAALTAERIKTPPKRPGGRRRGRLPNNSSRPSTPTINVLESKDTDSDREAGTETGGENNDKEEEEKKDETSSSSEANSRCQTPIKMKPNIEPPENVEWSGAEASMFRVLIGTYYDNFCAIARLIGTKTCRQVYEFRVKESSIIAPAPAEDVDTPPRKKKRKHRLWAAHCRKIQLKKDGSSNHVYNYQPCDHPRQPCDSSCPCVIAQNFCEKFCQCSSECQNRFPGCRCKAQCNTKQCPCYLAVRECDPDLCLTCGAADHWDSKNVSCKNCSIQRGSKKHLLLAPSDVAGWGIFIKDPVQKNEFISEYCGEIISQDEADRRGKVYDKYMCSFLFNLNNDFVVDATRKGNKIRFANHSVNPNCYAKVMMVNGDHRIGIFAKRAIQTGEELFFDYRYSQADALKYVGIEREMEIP

[11] = system: MV4-11; test: Cell cycle arrest in human MV4-11 cells accumulation at G2 phase at 25 uM after 24 hrs bby propidium iodide staining-based flow cytometric analysis (reference value: 4.68%); assay type: functional
[12] = system: MV4-11; test: Induction of apoptosis in human MV4-11 cells assessed as early apototic cells at 20 uM after 72 hrs by Annexin-V FITC/propidium iodide staining based flow cytometric analysis (reference value: 0.75%); assay type: functional
[13] = system: MV4-11; test: Cell cycle arrest in human MV4-11 cells accumulation at S phase at 25 uM after 24 hrs bby propidium iodide staining-based flow cytometric analysis (reference value: 42.77%); assay type: functional
[14] = system: MV4-11; test: Cell cycle arrest in human MV4-11 cells accumulation at G1 phase at 25 uM after 24 hrs bby propidium iodide staining-based flow cytometric analysis (reference value: 52.56%); assay type: functional
[15] = system: MV4-11; test: Cell cycle arrest in human MV4-11 cells accumulation at G1 phase at 12.5 uM after 24 hrs bby propidium iodide staining-based flow cytometric analysis (reference value: 52.56%); assay type: functional
[16] = system: MV4-11; test: Induction of apoptosis in human MV4-11 cells after 72 hrs by Annexin-V FITC/propidium iodide staining based flow cytometric analysis; assay type: functional, cell-based
[17] = system: MV4-11; test: Induction of apoptosis in human MV4-11 cells assessed as viable cells at 20 uM after 72 hrs by Annexin-V FITC/propidium iodide staining based flow cytometric analysis (reference value: 95.2%); assay type: functional; details: MV4-11, 72 h, read-out: Activity
[18] = system: MV4-11; test: Induction of apoptosis in human MV4-11 cells assessed as viable cells at 40 uM after 72 hrs by Annexin-V FITC/propidium iodide staining based flow cytometric analysis (reference value: 95.2%); assay type: functional; details: MV4-11, 72 h, read-out: Activity
[19] = system: MV4-11; test: Induction of apoptosis in human MV4-11 cells assessed as late apototic cells at 20 uM after 72 hrs by Annexin-V FITC/propidium iodide staining based flow cytometric analysis (reference value: 3.41%); assay type: functional
[20] = system: MV4-11; test: Cell cycle arrest in human MV4-11 cells accumulation at G0/G1 phase after 24 hrs bby propidium iodide staining-based flow cytometric analysis; assay type: functional
[21] = system: MV4-11; test: Induction of apoptosis in human MV4-11 cells assessed as necrotic cells at 20 uM after 72 hrs by Annexin-V FITC/propidium iodide staining based flow cytometric analysis (reference value: 0.66%); assay type: functional
[22] = system: MV4-11; test: Induction of apoptosis in human MV4-11 cells assessed as necrotic cells at 40 uM after 72 hrs by Annexin-V FITC/propidium iodide staining based flow cytometric analysis (reference value: 0.66%); assay type: functional
[23] = target: Histone acetyltransferase p300 (Homo sapiens) (UniProt Q09472); test: Inhibition of p300 (unknown origin) at 33 uM relative to control
Histone acetyltransferase p300 (Homo sapiens), sequence (Q09472 whole entry): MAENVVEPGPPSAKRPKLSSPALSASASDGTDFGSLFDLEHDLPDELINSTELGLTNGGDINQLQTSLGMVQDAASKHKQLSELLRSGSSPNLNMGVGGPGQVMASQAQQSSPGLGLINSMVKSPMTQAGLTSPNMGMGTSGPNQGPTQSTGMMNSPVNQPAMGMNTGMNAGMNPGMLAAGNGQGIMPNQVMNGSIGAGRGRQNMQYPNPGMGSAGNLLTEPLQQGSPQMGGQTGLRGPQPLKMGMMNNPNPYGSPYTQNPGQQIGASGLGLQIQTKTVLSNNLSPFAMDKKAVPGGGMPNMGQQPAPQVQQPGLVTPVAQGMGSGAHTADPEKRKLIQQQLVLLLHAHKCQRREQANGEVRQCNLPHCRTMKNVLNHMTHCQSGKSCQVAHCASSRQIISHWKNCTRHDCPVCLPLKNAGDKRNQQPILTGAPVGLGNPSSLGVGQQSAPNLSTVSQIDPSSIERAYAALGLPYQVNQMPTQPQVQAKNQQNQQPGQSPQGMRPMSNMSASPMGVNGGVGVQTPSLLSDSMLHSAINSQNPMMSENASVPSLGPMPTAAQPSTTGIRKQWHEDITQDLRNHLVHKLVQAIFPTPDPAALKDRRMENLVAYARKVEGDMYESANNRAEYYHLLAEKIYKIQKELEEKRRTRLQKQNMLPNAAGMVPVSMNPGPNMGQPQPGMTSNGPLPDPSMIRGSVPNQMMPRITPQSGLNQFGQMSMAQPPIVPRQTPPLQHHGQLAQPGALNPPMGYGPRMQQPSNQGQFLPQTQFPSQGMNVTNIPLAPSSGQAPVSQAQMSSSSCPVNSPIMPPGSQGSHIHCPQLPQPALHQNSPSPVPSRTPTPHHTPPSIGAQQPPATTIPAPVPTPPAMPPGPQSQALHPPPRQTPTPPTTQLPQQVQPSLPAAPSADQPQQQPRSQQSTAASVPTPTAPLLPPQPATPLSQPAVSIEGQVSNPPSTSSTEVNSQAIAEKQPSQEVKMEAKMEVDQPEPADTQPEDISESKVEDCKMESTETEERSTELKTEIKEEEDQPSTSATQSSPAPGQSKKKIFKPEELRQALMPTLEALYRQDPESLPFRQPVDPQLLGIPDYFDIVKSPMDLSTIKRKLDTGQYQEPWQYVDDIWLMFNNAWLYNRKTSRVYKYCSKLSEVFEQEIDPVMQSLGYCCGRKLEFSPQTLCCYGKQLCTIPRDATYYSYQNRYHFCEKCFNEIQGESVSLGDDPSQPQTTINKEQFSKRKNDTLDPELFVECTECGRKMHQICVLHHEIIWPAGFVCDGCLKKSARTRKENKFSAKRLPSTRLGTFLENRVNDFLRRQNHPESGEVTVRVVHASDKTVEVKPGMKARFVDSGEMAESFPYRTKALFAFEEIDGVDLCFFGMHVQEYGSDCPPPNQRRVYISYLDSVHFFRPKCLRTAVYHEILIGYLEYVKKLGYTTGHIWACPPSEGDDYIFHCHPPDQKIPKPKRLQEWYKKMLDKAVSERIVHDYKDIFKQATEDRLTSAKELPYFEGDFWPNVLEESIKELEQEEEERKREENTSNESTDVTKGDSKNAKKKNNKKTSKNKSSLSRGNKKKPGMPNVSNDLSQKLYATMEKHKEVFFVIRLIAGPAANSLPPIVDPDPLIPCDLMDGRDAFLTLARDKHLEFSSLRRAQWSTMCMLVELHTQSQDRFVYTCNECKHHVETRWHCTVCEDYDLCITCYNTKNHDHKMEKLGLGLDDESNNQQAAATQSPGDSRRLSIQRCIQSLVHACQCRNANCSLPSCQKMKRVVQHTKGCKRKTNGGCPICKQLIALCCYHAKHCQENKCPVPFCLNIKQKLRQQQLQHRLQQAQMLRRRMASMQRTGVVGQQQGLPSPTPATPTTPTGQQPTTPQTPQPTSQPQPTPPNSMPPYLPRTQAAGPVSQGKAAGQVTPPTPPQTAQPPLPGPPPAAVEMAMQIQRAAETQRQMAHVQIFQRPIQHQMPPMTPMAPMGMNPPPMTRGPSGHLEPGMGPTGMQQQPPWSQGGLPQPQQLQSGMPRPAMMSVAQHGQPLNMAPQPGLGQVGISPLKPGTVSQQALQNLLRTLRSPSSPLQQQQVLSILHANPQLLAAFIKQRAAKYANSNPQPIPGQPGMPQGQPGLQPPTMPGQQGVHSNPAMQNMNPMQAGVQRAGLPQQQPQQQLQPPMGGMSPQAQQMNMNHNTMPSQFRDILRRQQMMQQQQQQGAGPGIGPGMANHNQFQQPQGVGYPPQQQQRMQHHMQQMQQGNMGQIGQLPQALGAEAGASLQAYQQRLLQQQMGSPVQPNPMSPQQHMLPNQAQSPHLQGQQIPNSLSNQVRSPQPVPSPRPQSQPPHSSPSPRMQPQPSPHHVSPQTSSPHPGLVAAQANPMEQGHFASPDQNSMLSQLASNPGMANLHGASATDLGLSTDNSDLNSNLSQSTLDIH

[24] = system: MV4-11; test: Cell cycle arrest in human MV4-11 cells accumulation at G2 phase at 12.5 uM after 24 hrs bby propidium iodide staining-based flow cytometric analysis (reference value: 4.68%); assay type: functional
[25] = system: MV4-11; test: Induction of apoptosis in human MV4-11 cells assessed as late apototic cells at 40 uM after 72 hrs by Annexin-V FITC/propidium iodide staining based flow cytometric analysis (reference value: 3.41%); assay type: functional
[26] = system: HUVEC; test: Antiproliferative activity against HUVEC after 3 days by celltiter-glo luminescent assay; assay type: cell-based; details: human, 72 h
[27] = system: MV4-11; test: Cell cycle arrest in human MV4-11 cells accumulation at S phase at 12.5 uM after 24 hrs bby propidium iodide staining-based flow cytometric analysis (reference value: 42.77%); assay type: functional
[28] = system: MV4-11; test: Induction of apoptosis in human MV4-11 cells assessed as early apototic cells at 40 uM after 72 hrs by Annexin-V FITC/propidium iodide staining based flow cytometric analysis (reference value: 0.75%); assay type: functional
[29] = Antiproliferative activity against human […] cells after 3 days by celltiter-glo luminescent assay; assay type: cell-based; details: 72 h

## CC1=C(C#N)C(c2ccc(OCc3ccc(C(=O)O)cc3)cc2)C2=C(CCCC2=O)N1 (stereo not drawn)
[1]
  inhibition: 34%

## O=C(O)c1ccc(COc2ccccc2Br)cc1
[2]
  IC50: 81 µM

## COc1cc(C2C3=C(CCCC3=O)NC3=C2C(=O)CCC3)ccc1OCc1ccc(C(=O)O)cc1
[1]
  inhibition: 24%

## COC(=O)C1=C(C)NC2=C(C(=O)CC(C)(C)C2)C1c1ccc(OCc2ccc(C(=O)O)cc2)cc1 (stereo not drawn)
[2]
  IC50: 31 µM

## N#Cc1c(-c2ccc(F)cc2)cc(-c2cccs2)nc1SCC(=O)NCC(=O)O
[2]
  IC50: 20 µM
[3]
  inhibition: > 70%

## O=C1CCCC2=C1C(c1ccc(OCc3cccc(F)c3)c(Br)c1)C1=C(CCCC1=O)N2
[1]
  inhibition: 26%
[4]
  IC50: > 100 µM
[5]
  inhibition: inactive

## O=C(O)c1ccc(-c2nc3c4ccccc4c4ccccc4c3[nH]2)cc1
[2]
  IC50: 8.6 µM
[3]
  inhibition: > 70%

## O=C1CCCC2=C1C(c1ccc(OCc3ccc(C(=O)O)cc3)cc1)c1ccc3ccccc3c1N2 (stereo not drawn)
[2]
  IC50: 34 µM

## O=C1CCCC2=C1C(c1cc(Cl)c(OCc3ccc(C(=O)O)cc3)c(Cl)c1)C1=C(CCCC1=O)N2
[6]
  Activity: Active
[7]
  Kd: 26.2 µM
[2]
  IC50: 34.7 µM
[3]
  inhibition: > 70%
[8]
  Activity: Active

## CC1(C)CC(=O)C2=C(C1)NC1=C(C(=O)CC(C)(C)C1)C2c1ccc(OCc2ccc(C(=O)O)cc2)c(Br)c1
[2]
  IC50: 16 µM

## COC(=O)c1cc(NC(=O)Cc2cccs2)cc(C(=O)OC)c1
[2]
  IC50: 2.9 µM
[3]
  inhibition: > 70%

## COc1cc(CNC2CCCC2)ccc1OCC(=O)NC(C)(C)C
[3]
  inhibition: > 70%

## CC1(C)CC(=O)C2=C(C1)NC1=C(C(=O)CC(C)(C)C1)C2c1ccc(OCc2ccccc2)c(Br)c1
[1]
  inhibition: 15%

## O=c1cc(O)c2sc3nc(-c4cccs4)cc(C(F)(F)F)c3c2[nH]1
[2]
  IC50: 19 µM
[3]
  inhibition: > 70%

## CN(C)CCOc1ccc(NC2Cc3ccccc3CSc3ccccc32)cc1 (stereo not drawn)
[3]
  inhibition: > 70%

## CC1(C)CC(=O)C2=C(C1)NC1=C(C(=O)CC(C)(C)C1)C2c1ccc(O)c(Br)c1
[1]
  inhibition: 18%

## CCC(=O)Nc1cccc(NC(=O)C(C)Oc2cccc(C)c2)c1 (stereo not drawn)
[3]
  inhibition: > 70%

## CC1(C)CC(=O)C2=C(C1)NC1=C(C(=O)CC(C)(C)C1)C2c1cc(Br)c(OCc2ccc(C(=O)O)cc2)c(Br)c1
[9]
  inhibition: -8%
[10]
  inhibition: 7%
[11]
  Activity: 1.3%
[12]
  Activity: 0.81%
[13]
  Activity: 13.99%
[7]
  Kd: 4.2 µM
[14]
  Activity: 84.7%
[15]
  Activity: 72.36%
[16]
  Activity: Dose-dependent effect
[4]
  Activity: Dose-dependent effect
  IC50: 24.7 µM
[17]
  viability at 20 µM: 82.5%
[18]
  viability at 40 µM: 42.4%
[19]
  Activity: 16.2%
[2]
  IC50: 6.8 µM
[20]
  Activity: Dose-dependent effect
[21]
  Activity: 0.41%
[22]
  Activity: 2.32%
[23]
  inhibition: 21%
[24]
  Activity: 1.35%
[25]
  Activity: 54.6%
[26]
  Activity: Non-Toxic
[5]
  inhibition: Active
[27]
  Activity: 26.29%
[28]
  Activity: 0.7%
[29]
  Activity: Non-Toxic
